# Source: patent publication US20250255981A1, “IMMUNOMODULATORY ANTIBODY-DRUG CONJUGATES” (Seagen Inc., priority 2022, published 2025)
# Tests used:
# [1] = test system: wild type (WT) murine bone marrow-derived macrophages; assay: Bone marrow-derived macrophage assay, wild type; format: cell-based, mouse; settings: 24 hours
# Protocol: Potency of the compounds described herein was evaluated using mouse bone-marrow derived macrophages cultured from wild type (C57BL/6J, the Jackson Laboratory #000664) or STING-deficient (C57BL/6J-Sting1^gt/J, the Jackson Laboratory #017537) mice. Briefly, mouse bone marrow cells were cultured for 7-10 days in RPMI-1640 (Gibco) with 10% heat-inactivated fetal bovine serum, Pen-Strep (100 U/mL-100 […], Gibco), HEPES (10 mM, Gibco), sodium pyruvate (1 mM, Gibco), GlutaMAX (1×, Gibco), beta-mercaptoethanol ([…], Gibco) and 20-40 ng/mL murine M-CSF (Peprotech, #315-02). Cells were plated in a 96-well flat bottom tissue culture-treated clear polystyrene plate (Corning Costar #3596) at ˜100,000 cells per well in 200 μL with the indicated concentration of the compound. The supernatant was harvested at 24 hours and cytokines were measured using a Milliplex MAP mouse cytokine/chemokine magnetic bead panel assay kit (MCYTOMAG-70k custom 11-plex kit: MCP1, MIP1α, MIP1β, TNFα, IFNγ, IL-10, IL-12p70, IL-1β, IL-6, IP10, RANTES) and analyzed using a Luminex™ MAGPIX™ Instrument System.
# [2] = test system: Renca cancer cells; assay: In vivo anti-tumor activity, Renca tumor model
# Protocol: In some experiments, Renca tumor cells were engineered to express the indicated murine or human target antigen.
# (§1) When tumor volumes reached 100 mm^3, the mice were dosed with either compounds or ADCs by intraperitoneal or intravenous injection at the indicated dosing schedule and tumor volumes were monitored twice weekly. Compounds were formulated in 40% PEG400 in saline.
# (§2) A syngeneic system was used to assess the ability of the STING agonist ADCs to induce immune responses in vivo and drive an anti-tumor immune response. The Renca system is a subcutaneous, mouse renal adenocarcinoma model. Female Balb/c mice were implanted with 2×10^6 Renca cells subcutaneously in the flank on day 0. When mean tumor size of 100 mm^3 (measured by using the formula Volume (mm^3)=0.5*Length*Width^2 where length is the longer dimension) was reached mice were randomized into treatment groups of ≥5 mice per group. Animals were then treated intraperitoneally (ADCs or compounds) or intravenously (compounds) with the indicated treatment every 7 days, for 3 doses total (or as indicated). Tumor length and width and the weight of the animals was measured throughout the study and tumor volume was calculated using the formula above. Animals were followed until the tumor volume reached ˜1000 mm^3; animals were then euthanized.
# [3] = test system: THP1-Dual™ cells (IRF-Lucia luciferase reporter); assay: THP1-Dual™ cell reporter assay; format: cell-based, human; settings: free drug, 24 h (48 h elsewhere in the source)
# How it was run: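 THP1-Dual cells (~100,000 per well) exposed to compound or ADC in supplemented RPMI-1640 with 10% FBS; supernatant taken at 24 h for compounds or 48 h for ADCs. Secreted IRF-driven Lucia luciferase measured by luminescence with QUANTI-Luc reagent.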
# [4] = test system: Renca tumor-bearing mice; assay: In vivo cytokine assay, Renca tumor-bearing mice; parameters: species or system mouse; settings: for systemic pro-inflammatory cytokine (IL-6 and TNF) production: plasma; for IFNγ in plasma / IL1β in plasma / IL12p70 in plasma / IL-6 in plasma / IL-10 in plasma / IP10 in plasma / MCP-1 in plasma / MIP1α in plasma / MIP1β in plasma: 1.86 mg/kg
# Protocol: Cytokines were measured in mouse plasma harvested at 3, 6, 24, or 48 hours after treatment with compounds or ADCs using a Milliplex MAP mouse cytokine/chemokine magnetic bead panel assay kit (MCYTOMAG-70k custom 11-plex kit: MCP1, MIP1a, MIP1(3, TNFα, IFNγ, IL-10, IL-12p70, IL-6, IL-1β, IP10, RANTES) and analyzed using a Luminex™ MAGPIX™ Instrument System. Values that were outside of the standard curve range (<3.2 or […]) were either excluded from calculation of the mean values or, when indicated, converted to […] for calculation of the mean values.
# Renca cancer cells (ATCC) were cultured in RPMI-1640 (ATCC) with 10% heat-inactivated fetal bovine serum, Pen-Strep (100 U/mL-100 μg/mL), MEM non-essential amino acids (1×), sodium pyruvate (1 mM), and L-glutamine (2 mM). Renca cancer cells were implanted (2*10^6 cells in 200 μL 25% Matrigel) subcutaneously into Balb/c female mice. In some experiments, Renca tumor cells were engineered to express the indicated murine or human target antigen.
# as §1, §2
# [5] = test system: human CD228-LL2 tumor-bearing mice; assay: In vivo cytokine assay, human CD228-LL2 tumor-bearing mice; parameters: species or system mouse
# Protocol: Cytokines were measured in mouse plasma harvested at 3, 6, 24, or 48 hours after treatment with compounds or ADCs using a Milliplex MAP mouse cytokine/chemokine magnetic bead panel assay kit (MCYTOMAG-70k custom 11-plex kit: MCP1, MIP1a, MIP1(3, TNFα, IFNγ, IL-10, IL-12p70, IL-6, IL-1β, IP10, RANTES) and analyzed using a Luminex™ MAGPIX™ Instrument System. Values that were outside of the standard curve range (<3.2 or >10,000 μg/mL) were either excluded from calculation of the mean values or, when indicated, converted to 3.2 or 10,000 μg/mL for calculation of the mean values.
# LL2 cancer cells were engineered using lentiviral transduction to express human CD228. LL2 cells were cultured in DMEM (ATCC) with 10% heat-inactivated fetal bovine serum. Female C57BL/6 mice were implanted with 1×10^6 hCD228-LL2 tumor cells in 100 μL 25% Matrigel in RPMI 1640 medium subcutaneously. Once tumor volumes reached 100 mm^3, mice were randomized into treatment groups and dosed as indicated. […] Stock concentrations of mAb or conjugates were diluted to a desired concentration (with 20 mM His, 6% Trehalose or 0.01% Tween20 in PBS) and injected intraperitoneally (i.p.) or intravenously (i.v.) as indicated. The small molecule was formulated in 40% PEG400 in saline and injected i.v.
# [6] = dose 1, 6 h, 0.08 mg/kg Q7Dx3 i.v.
# [7] = dose 1, 6 h, 1.5 mg/kg Q7Dx3 i.v.
# [8] = dose 2, 6 h, 0.08 mg/kg Q7Dx3 i.v.
# [9] = dose 2, 6 h, 1.5 mg/kg Q7Dx3 i.v.
# [10] = dose 3, 6 h, 0.08 mg/kg Q7Dx3 i.v.
# [11] = dose 3, 6 h, 1.5 mg/kg Q7Dx3 i.v.
smiles,measurement,setting,value
CCn1nc(C)cc1C(=O)Nc1nc2cc(C(N)=O)cc(OC)c2n1C/C=C/Cn1c(NC(=O)c2cc(C)nn2CC)nc2cc(C(N)=O)cc(OCCCNC)c21 [Compound 12a],cytokine production,[1],induced cytokine production
same,tumor growth / anti-tumor activity,"[2]; Renca, q7dx3",limited anti-tumor efficacy
same,"relative potency of free drug, Lucia reporter",[3],less potent than compound 1 and compound A
same,systemic pro-inflammatory cytokine (IL-6 and TNF) production,[4],induced robust production of IL-6 and TNF
"CCn1nc(C)cc1C(=O)Nc1nc2cc(C(N)=O)cc(OC)c2n1C/C=C/Cn1c(NC(=O)c2cc(C)nn2CC)nc2cc(C(N)=O)cc(OCCCN3CCOCC3)c21.O=C(O)C(F)(F)F.O=C(O)C(F)(F)F.O=C(O)C(F)(F)F [Compound A, (E)-1-(4-(5-carbamoyl-2-(1-ethyl-3-methyl-1H-pyrazole-5-carboxamido)-7-(3-morpholinopropoxy)-1H-benzo[d]imidazol-1-yl)but-2-en-1-yl)-2-(1-ethyl-3-methyl-1H-pyrazole-5-carboxamido)-7-methoxy-1H-benzo[d]imidazole-5-carboxamide tris(2,2,2-trifluoroacetate)]",tolerability,[2]; Renca tumor-bearing mice,less well tolerated
same,average weight loss,[2]; after the 2nd dose,6.2%
same,"relative potency of free drug, Lucia reporter",[3],"significantly more potent than (2′, 3′)-Rp,Rpc-diAMPS disodium (Compound B)"
same,"IFNg, peripheral blood (plasma), mean",[5]; [6],9.8 pg/mL
same,"IL1b, peripheral blood (plasma), mean",[5]; [6],12.1 pg/mL
same,"IL-6, peripheral blood (plasma), mean",[5]; [6],346.7 pg/mL
same,"IL-10, peripheral blood (plasma), mean",[5]; [6],15.8 pg/mL
same,"IL-12p70, peripheral blood (plasma), mean",[5]; [6],3.0 pg/mL
same,"IP10, peripheral blood (plasma), mean",[5]; [6],7501.0 pg/mL
same,"MCP-1, peripheral blood (plasma), mean",[5]; [6],3780.5 pg/mL
same,"MIP1a, peripheral blood (plasma), mean",[5]; [6],107.1 pg/mL
same,"MIP1b, peripheral blood (plasma), mean",[5]; [6],474.6 pg/mL
same,"RANTES, peripheral blood (plasma), mean",[5]; [6],33.9 pg/mL
same,"TNFa, peripheral blood (plasma), mean",[5]; [6],11.0 pg/mL
same,"IFNg, peripheral blood (plasma), mean",[5]; [7],392.4 pg/mL
same,"IL1b, peripheral blood (plasma), mean",[5]; [7],38.0 pg/mL
same,"IL-6, peripheral blood (plasma), mean",[5]; [7],10532.0 pg/mL
same,"IL-10, peripheral blood (plasma), mean",[5]; [7],71.5 pg/mL
same,"IL-12p70, peripheral blood (plasma), mean",[5]; [7],32.3 pg/mL
same,"IP10, peripheral blood (plasma), mean",[5]; [7],>10000 pg/mL
same,"MCP-1, peripheral blood (plasma), mean",[5]; [7],10000.0 pg/mL
same,"MIP1a, peripheral blood (plasma), mean",[5]; [7],574.2 pg/mL
same,"MIP1b, peripheral blood (plasma), mean",[5]; [7],4253.1 pg/mL
same,"RANTES, peripheral blood (plasma), mean",[5]; [7],1705.3 pg/mL
same,"TNFa, peripheral blood (plasma), mean",[5]; [7],95.7 pg/mL
same,"IFNg, peripheral blood (plasma), mean",[5]; [8],11.7 pg/mL
same,"IL1b, peripheral blood (plasma), mean",[5]; [8],26.2 pg/mL
same,"IL-6, peripheral blood (plasma), mean",[5]; [8],936.6 pg/mL
same,"IL-10, peripheral blood (plasma), mean",[5]; [8],9.5 pg/mL
same,"IL-12p70, peripheral blood (plasma), mean",[5]; [8],9.7 pg/mL
same,"IP10, peripheral blood (plasma), mean",[5]; [8],9045.3 pg/mL
same,"MCP-1, peripheral blood (plasma), mean",[5]; [8],7114.6 pg/mL
same,"MIP1a, peripheral blood (plasma), mean",[5]; [8],206.0 pg/mL
same,"MIP1b, peripheral blood (plasma), mean",[5]; [8],1550.3 pg/mL
same,"RANTES, peripheral blood (plasma), mean",[5]; [8],236.6 pg/mL
same,"TNFa, peripheral blood (plasma), mean",[5]; [8],18.4 pg/mL
same,"IFNg, peripheral blood (plasma), mean",[5]; [9],1550.6 pg/mL
same,"IL1b, peripheral blood (plasma), mean",[5]; [9],57.4 pg/mL
same,"IL-6, peripheral blood (plasma), mean",[5]; [9],22725.1 pg/mL
same,"IL-10, peripheral blood (plasma), mean",[5]; [9],92.3 pg/mL
same,"IL-12p70, peripheral blood (plasma), mean",[5]; [9],75.4 pg/mL
same,"IP10, peripheral blood (plasma), mean",[5]; [9],>10000 pg/mL
same,"MCP-1, peripheral blood (plasma), mean",[5]; [9],>10000 pg/mL
same,"MIP1a, peripheral blood (plasma), mean",[5]; [9],846.6 pg/mL
same,"MIP1b, peripheral blood (plasma), mean",[5]; [9],5235.4 pg/mL
same,"RANTES, peripheral blood (plasma), mean",[5]; [9],1906.1 pg/mL
same,"TNFa, peripheral blood (plasma), mean",[5]; [9],204.0 pg/mL
same,"IFNg, peripheral blood (plasma), mean",[5]; [10],21.9 pg/mL
same,"IL1b, peripheral blood (plasma), mean",[5]; [10],66.6 pg/mL
same,"IL-6, peripheral blood (plasma), mean",[5]; [10],1494.7 pg/mL
same,"IL-10, peripheral blood (plasma), mean",[5]; [10],36.3 pg/mL
same,"IL-12p70, peripheral blood (plasma), mean",[5]; [10],220.3 pg/mL
same,"IP10, peripheral blood (plasma), mean",[5]; [10],7718.5 pg/mL
same,"MCP-1, peripheral blood (plasma), mean",[5]; [10],5009.1 pg/mL
same,"MIP1a, peripheral blood (plasma), mean",[5]; [10],270.0 pg/mL
same,"MIP1b, peripheral blood (plasma), mean",[5]; [10],1009.6 pg/mL
same,"RANTES, peripheral blood (plasma), mean",[5]; [10],172.9 pg/mL
same,"TNFa, peripheral blood (plasma), mean",[5]; [10],29.6 pg/mL
same,"IFNg, peripheral blood (plasma), mean",[5]; [11],1236.8 pg/mL
same,"IL1b, peripheral blood (plasma), mean",[5]; [11],36.8 pg/mL
same,"IL-6, peripheral blood (plasma), mean",[5]; [11],14635.1 pg/mL
same,"IL-10, peripheral blood (plasma), mean",[5]; [11],62.8 pg/mL
same,"IL-12p70, peripheral blood (plasma), mean",[5]; [11],43.9 pg/mL
same,"IP10, peripheral blood (plasma), mean",[5]; [11],>10000 pg/mL
same,"MCP-1, peripheral blood (plasma), mean",[5]; [11],>10000 pg/mL
same,"MIP1a, peripheral blood (plasma), mean",[5]; [11],743.4 pg/mL
same,"MIP1b, peripheral blood (plasma), mean",[5]; [11],4517.1 pg/mL
same,"RANTES, peripheral blood (plasma), mean",[5]; [11],2533.7 pg/mL
same,"TNFa, peripheral blood (plasma), mean",[5]; [11],195.3 pg/mL
same,IFNγ in plasma,[4]; 3 h after treatment,0.3 pg/mL
same,IL1β in plasma,[4]; 3 h after treatment,1.5 pg/mL
same,IL12p70 in plasma,[4]; 3 h after treatment,0.2 pg/mL
same,IL-6 in plasma,[4]; 3 h after treatment,3550 pg/mL
same,IL-10 in plasma,[4]; 3 h after treatment,0.5 pg/mL
same,IP10 in plasma,[4]; 3 h after treatment,4780 pg/mL
same,MCP-1 in plasma,[4]; 3 h after treatment,14500 pg/mL
same,MIP1α in plasma,[4]; 3 h after treatment,1300 pg/mL
same,MIP1β in plasma,[4]; 3 h after treatment,6370 pg/mL
same,IFNγ in plasma,[4]; 6 h after treatment,71.8 pg/mL
same,IL1β in plasma,[4]; 6 h after treatment,0.6 pg/mL
same,IL12p70 in plasma,[4]; 6 h after treatment,0.2 pg/mL
same,IL-6 in plasma,[4]; 6 h after treatment,732 pg/mL
same,IL-10 in plasma,[4]; 6 h after treatment,< 3.2 pg/mL
same,IP10 in plasma,[4]; 6 h after treatment,4980 pg/mL
same,MCP-1 in plasma,[4]; 6 h after treatment,10800 pg/mL
same,MIP1α in plasma,[4]; 6 h after treatment,209 pg/mL
same,MIP1β in plasma,[4]; 6 h after treatment,2150 pg/mL
same,IFNγ in plasma,[4]; 24 h after treatment,< 3.2 pg/mL
same,IL1β in plasma,[4]; 24 h after treatment,0.3 pg/mL
same,IL12p70 in plasma,[4]; 24 h after treatment,< 3.2 pg/mL
same,IL-6 in plasma,[4]; 24 h after treatment,16.4 pg/mL
same,IL-10 in plasma,[4]; 24 h after treatment,< 3.2 pg/mL
same,IP10 in plasma,[4]; 24 h after treatment,890 pg/mL
same,MCP-1 in plasma,[4]; 24 h after treatment,540 pg/mL
same,MIP1α in plasma,[4]; 24 h after treatment,41.7 pg/mL
same,MIP1β in plasma,[4]; 24 h after treatment,35.5 pg/mL
same,systemic pro-inflammatory cytokine (IL-6 and TNF) production,[4],induced robust production of IL-6 and TNF
